For 5 molecules, Ki, Ratio Ki and Drug uptake results are on record in ChEMBL document CHEMBL2311316, “Synthesis and biological evaluation of ¹⁸F labeled fluoro-oligo-ethoxylated 4-benzylpiperazine derivatives for sigma-1 receptor imaging” (Bioorg Med Chem, 2013).

The term pKi denotes the negative decadic logarithm of the Ki, by convention in mol/L. Higher therefore signals a small Ki.

pKi: −log10 of the molar value.

In data set [1] the target is Sigma non-opioid intracellular receptor 1 (Rattus norvegicus, UniProt Q9R0C9). As to the kind of experiment: Displacement of (+)-[3H]pentazocine from sigma1 receptor in rat brain membranes. In kind it is cell membranes.
The species named for the next data set is Rattus norvegicus. Description: Selectivity index, ratio of Ki for sigma2 receptor in rat liver membranes to Ki for sigma1 receptor in rat brain membranes. It counts as cell membranes.
Data set [2] is described as follows: Displacement of [3H]ditolyguanidine from sigma2 receptor in rat liver membranes. It counts as cell membranes, Membrane. For orientation: Displacement assays read how much labelled ligand stays bound in the presence of the test substance.
Another data set relates to Brain. As to the kind of experiment: Specific drug uptake in ICR mouse brain at 4 uCi, iv measured 60 mins post dose. In kind it is ADME, organism-based. The note with it: in vivo, 1 h.
Data set [3] has as its target T1, Vesicular acetylcholine transporter (Homo sapiens, UniProt Q16572).
T1 sequence (Q16572 whole entry): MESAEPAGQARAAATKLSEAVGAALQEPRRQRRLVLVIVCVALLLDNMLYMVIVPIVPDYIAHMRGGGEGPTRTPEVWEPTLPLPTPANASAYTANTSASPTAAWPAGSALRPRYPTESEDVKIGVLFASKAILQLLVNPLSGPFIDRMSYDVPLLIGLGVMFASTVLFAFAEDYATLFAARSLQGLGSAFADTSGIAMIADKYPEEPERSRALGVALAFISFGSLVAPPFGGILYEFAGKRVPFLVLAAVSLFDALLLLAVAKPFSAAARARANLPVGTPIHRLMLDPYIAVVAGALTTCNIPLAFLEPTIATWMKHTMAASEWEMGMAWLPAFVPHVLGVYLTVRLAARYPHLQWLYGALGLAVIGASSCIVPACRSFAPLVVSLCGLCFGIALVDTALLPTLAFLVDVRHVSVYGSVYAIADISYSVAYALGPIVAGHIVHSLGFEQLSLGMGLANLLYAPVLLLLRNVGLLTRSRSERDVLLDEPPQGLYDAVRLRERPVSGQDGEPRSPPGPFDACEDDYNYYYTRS
As to the kind of experiment: Binding affinity to VAChT (unknown origin).

Sequence of Sigma non-opioid intracellular receptor 1 (Q9R0C9 whole entry): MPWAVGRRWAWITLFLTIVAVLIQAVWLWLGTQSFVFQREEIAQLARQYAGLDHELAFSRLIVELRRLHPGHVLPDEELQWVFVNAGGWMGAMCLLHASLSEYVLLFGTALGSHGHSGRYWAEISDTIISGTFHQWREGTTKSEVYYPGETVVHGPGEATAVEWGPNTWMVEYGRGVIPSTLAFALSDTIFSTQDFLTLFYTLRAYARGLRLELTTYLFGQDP

Turning to `FCCOCCOCCOc1ccc(CN2CCN(Cc3ccc4c(c3)OCO4)CC2)cc1`, the pKi is 6.30 in data set [1] and 5.85 in data set [2]. In addition, the Ratio Ki in the data set listed under Rattus norvegicus came out at 2.81.
On the same counts, the results for `FCCOCCOc1ccc(CN2CCN(Cc3ccc4c(c3)OCO4)CC2)cc1` are 7.39, 6.18 and 16.4.
In the case of `O=C(CCCN1CCC(O)(c2ccc(Cl)cc2)CC1)c1ccc(F)cc1` [HALOPERIDOL], the pKi in data set [2] is 7.68.
As for `FCCOc1ccc(CN2CCN(Cc3ccc4c(c3)OCO4)CC2)cc1`, the pKi in data set [1] is 8.73; in data set [2] it was 6.54. For the same molecule, the Ratio Ki in the data set filed under Rattus norvegicus was determined as 157.
`[17F]CCC1OC2(CCN(Cc3ccccc3)CC2)c2ccccc21` (configuration not stated) [[18F]FLUSPIDINE] registered a Drug uptake in the data set with Brain of 62%. Moreover, the pKi in data set [3] was 6.68.
